ChEMBL document CHEMBL1649268, “Comparative in vitro activity profile of oritavancin against recent gram-positive clinical isolates” (2009)
In brackets after ≈: the same amount, converted by molar mass.

What was measured:
Streptococcus pneumoniae [1] = test: Antimicrobial activity against penicillin-resistant Streptococcus pneumoniae clinical isolates by broth microdilution method; format: functional
[2] = Antimicrobial activity against Streptococcus Group C clinical isolates assessed as percent susceptible isolates by broth microdilution method; format: functional, Streptococcus sp. 'group C'
Streptococcus pyogenes [3] = test: Antimicrobial activity against erythromycin-susceptible Streptococcus pyogenes clinical isolates assessed as resistant isolates by broth microdilution method; format: functional
Streptococcus agalactiae [4] = test: Antimicrobial activity against Streptococcus agalactiae clinical isolates assessed as resistant isolates by broth microdilution method; format: functional
[5] = Antimicrobial activity against erythromycin-susceptible Streptococcus Group C clinical isolates assessed as percent susceptible isolates by broth microdilution method; format: functional, Streptococcus sp. 'group C'
[6] = Antimicrobial activity against erythromycin-susceptible Streptococcus Group G clinical isolates assessed as resistant isolates by broth microdilution method; format: functional, Streptococcus sp. 'group G'
[7] = Antimicrobial activity against erythromycin-nonsusceptible Streptococcus Group C clinical isolates by broth microdilution method; format: functional; settings: Streptococcus sp. 'group C'
Streptococcus pneumoniae [8] = test: Antimicrobial activity against Streptococcus pneumoniae clinical isolates by broth microdilution method; format: functional
Streptococcus pneumoniae [9] = test: Antimicrobial activity against penicillin-intermediate Streptococcus pneumoniae clinical isolates assessed as percent susceptible isolates by broth microdilution method; format: functional
Streptococcus [10] = test: Antimicrobial activity against erythromycin-nonsusceptible Streptococcus Group F clinical isolates by broth microdilution method; format: functional
[11] = Antimicrobial activity against erythromycin-susceptible Streptococcus Group G clinical isolates assessed as percent susceptible isolates by broth microdilution method; format: functional, Streptococcus sp. 'group G'
[12] = Antimicrobial activity against Streptococcus Group G clinical isolates by broth microdilution method; format: functional; settings: Streptococcus sp. 'group G'
[13] = Antimicrobial activity against erythromycin-susceptible Streptococcus Group C clinical isolates assessed as resistant isolates by broth microdilution method; format: functional, Streptococcus sp. 'group C'
Streptococcus pyogenes [14] = test: Antimicrobial activity against Streptococcus pyogenes clinical isolates by broth microdilution method; format: functional
[15] = Antimicrobial activity against erythromycin-nonsusceptible Streptococcus Group C clinical isolates assessed as percent susceptible isolates by broth microdilution method; format: functional, Streptococcus sp. 'group C'
Streptococcus pyogenes [16] = test: Antimicrobial activity against erythromycin-nonsusceptible Streptococcus pyogenes clinical isolates assessed as percent susceptible isolates by broth microdilution method; format: functional
Streptococcus [17] = test: Antimicrobial activity against Streptococcus Group F clinical isolates assessed as resistant isolates by broth microdilution method; format: functional
[18] = Antimicrobial activity against erythromycin-nonsusceptible Streptococcus Group C clinical isolates assessed as resistant isolates by broth microdilution method; format: functional, Streptococcus sp. 'group C'
[19] = Antimicrobial activity against erythromycin-susceptible Streptococcus Group C clinical isolates by broth microdilution method; format: functional; settings: Streptococcus sp. 'group C'
[20] = Antimicrobial activity against Streptococcus Group C clinical isolates by broth microdilution method; format: functional; settings: Streptococcus sp. 'group C'
[21] = Antimicrobial activity against erythromycin-nonsusceptible Streptococcus Group G clinical isolates by broth microdilution method; format: functional; settings: Streptococcus sp. 'group G'
Streptococcus [22] = test: Antimicrobial activity against Streptococcus Group F clinical isolates assessed as percent susceptible isolates by broth microdilution method; format: functional
[23] = Antimicrobial activity against erythromycin-susceptible Streptococcus Group G clinical isolates by broth microdilution method; format: functional; settings: Streptococcus sp. 'group G'
[24] = Antimicrobial activity against Streptococcus Group C clinical isolates assessed as resistant isolates by broth microdilution method; format: functional, Streptococcus sp. 'group C'
Streptococcus pneumoniae [25] = test: Antimicrobial activity against penicillin-intermediate Streptococcus pneumoniae clinical isolates by broth microdilution method; format: functional
[26] = Antimicrobial activity against erythromycin-nonsusceptible Streptococcus Group G clinical isolates assessed as percent susceptible isolates by broth microdilution method; format: functional, Streptococcus sp. 'group G'
[27] = Antimicrobial activity against Streptococcus Group G clinical isolates assessed as percent susceptible isolates by broth microdilution method; format: functional, Streptococcus sp. 'group G'
Streptococcus agalactiae [28] = test: Antimicrobial activity against erythromycin-susceptible Streptococcus agalactiae clinical isolates by broth microdilution method; format: functional
Streptococcus agalactiae [29] = test: Antimicrobial activity against erythromycin-susceptible Streptococcus agalactiae clinical isolates assessed as percent susceptible isolates by broth microdilution method; format: functional
Streptococcus pyogenes [30] = test: Antimicrobial activity against Streptococcus pyogenes clinical isolates assessed as percent susceptible isolates by broth microdilution method; format: functional
Streptococcus [31] = test: Antimicrobial activity against erythromycin-nonsusceptible Streptococcus Group F clinical isolates assessed as resistant isolates by broth microdilution method; format: functional
Streptococcus pyogenes [32] = test: Antimicrobial activity against erythromycin-nonsusceptible Streptococcus pyogenes clinical isolates by broth microdilution method; format: functional
Streptococcus agalactiae [33] = test: Antimicrobial activity against Streptococcus agalactiae clinical isolates assessed as percent susceptible isolates by broth microdilution method; format: functional
Streptococcus pyogenes [34] = test: Antimicrobial activity against erythromycin-susceptible Streptococcus pyogenes clinical isolates assessed as percent susceptible isolates by broth microdilution method; format: functional
Streptococcus agalactiae [35] = test: Antimicrobial activity against erythromycin-nonsusceptible Streptococcus agalactiae clinical isolates assessed as resistant isolates by broth microdilution method; format: functional
Streptococcus [36] = test: Antimicrobial activity against erythromycin-nonsusceptible Streptococcus Group F clinical isolates assessed as percent susceptible isolates by broth microdilution method; format: functional
Streptococcus agalactiae [37] = test: Antimicrobial activity against erythromycin-susceptible Streptococcus agalactiae clinical isolates assessed as resistant isolates by broth microdilution method; format: functional
Streptococcus pyogenes [38] = test: Antimicrobial activity against erythromycin-nonsusceptible Streptococcus pyogenes clinical isolates assessed as resistant isolates by broth microdilution method; format: functional
Streptococcus pyogenes [39] = test: Antimicrobial activity against Streptococcus pyogenes clinical isolates assessed as resistant isolates by broth microdilution method; format: functional
Streptococcus [40] = test: Antimicrobial activity against erythromycin-susceptible Streptococcus Group F clinical isolates assessed as percent susceptible isolates by broth microdilution method; format: functional
Streptococcus pneumoniae [41] = test: Antimicrobial activity against Streptococcus pneumoniae clinical isolates assessed as resistant isolates by broth microdilution method; format: functional
Streptococcus pyogenes [42] = test: Antimicrobial activity against erythromycin-susceptible Streptococcus pyogenes clinical isolates by broth microdilution method; format: functional
Streptococcus agalactiae [43] = test: Antimicrobial activity against erythromycin-nonsusceptible Streptococcus agalactiae clinical isolates by broth microdilution method; format: functional
[44] = Antimicrobial activity against erythromycin-nonsusceptible Streptococcus Group G clinical isolates assessed as resistant isolates by broth microdilution method; format: functional, Streptococcus sp. 'group G'
Streptococcus [45] = test: Antimicrobial activity against Streptococcus Group F clinical isolates by broth microdilution method; format: functional
[46] = Antimicrobial activity against Streptococcus Group G clinical isolates assessed as resistant isolates by broth microdilution method; format: functional, Streptococcus sp. 'group G'
Streptococcus pneumoniae [47] = test: Antimicrobial activity against penicillin-susceptible Streptococcus pneumoniae clinical isolates by broth microdilution method; format: functional
Streptococcus pneumoniae [48] = test: Antimicrobial activity against penicillin-susceptible Streptococcus pneumoniae clinical isolates assessed as percent susceptible isolates by broth microdilution method; format: functional
Streptococcus agalactiae [49] = test: Antimicrobial activity against erythromycin-nonsusceptible Streptococcus agalactiae clinical isolates assessed as percent susceptible isolates by broth microdilution method; format: functional
Streptococcus [50] = test: Antimicrobial activity against erythromycin-susceptible Streptococcus Group F clinical isolates assessed as resistant isolates by broth microdilution method; format: functional
Streptococcus agalactiae [51] = test: Antimicrobial activity against Streptococcus agalactiae clinical isolates by broth microdilution method; format: functional
Streptococcus [52] = test: Antimicrobial activity against erythromycin-susceptible Streptococcus Group F clinical isolates by broth microdilution method; format: functional
Streptococcus pneumoniae [53] = test: Antimicrobial activity against Streptococcus pneumoniae clinical isolates assessed as percent susceptible isolates by broth microdilution method; format: functional

CC1(C)S[C@@H]2[C@H](NC(=O)Cc3ccccc3)C(=O)N2[C@H]1C(=O)O [PENICILLIN G]
MIC90 (Streptococcus pneumoniae [1]): 4 µg/mL (≈ 12 µM)
Activity [2]: 100%
Activity (Streptococcus pyogenes [3]): 0%
Activity (Streptococcus agalactiae [4]): 0%
Activity [5]: 100%
Activity [6]: 0%
MIC90 [7]: 0.03 µg/mL (≈ 0.0897 µM)
MIC90 (Streptococcus pneumoniae [8]): 2 µg/mL (≈ 5.98 µM)
Activity (Streptococcus pneumoniae [9]): 0%
MIC90 (Streptococcus [10]): 0.03 µg/mL (≈ 0.0897 µM)
Activity [11]: 100%
MIC90 [12]: 0.06 µg/mL (≈ 0.179 µM)
Activity [13]: 0%
MIC90 (Streptococcus pyogenes [14]): ≤ 0.03 µg/mL
Activity [15]: 100%
Activity (Streptococcus pyogenes [16]): 100%
Activity (Streptococcus [17]): 0%
Activity [18]: 0%
MIC90 [19]: 0.06 µg/mL (≈ 0.179 µM)
MIC90 [20]: 0.06 µg/mL (≈ 0.179 µM)
MIC90 [21]: 0.03 µg/mL (≈ 0.0897 µM)
Activity (Streptococcus [22]): 100%
MIC90 [23]: 0.06 µg/mL (≈ 0.179 µM)
Activity [24]: 0%
MIC90 (Streptococcus pneumoniae [25]): 1 µg/mL (≈ 2.99 µM)
Activity [26]: 100%
Activity [27]: 100%
MIC90 (Streptococcus agalactiae [28]): 0.06 µg/mL (≈ 0.179 µM)
Activity (Streptococcus agalactiae [29]): 100%
Activity (Streptococcus pyogenes [30]): 100%
Activity (Streptococcus [31]): 0%
MIC90 (Streptococcus pyogenes [32]): 0.03 µg/mL (≈ 0.0897 µM)
Activity (Streptococcus agalactiae [33]): 100%
Activity (Streptococcus pyogenes [34]): 100%
Activity (Streptococcus agalactiae [35]): 0%
Activity (Streptococcus [36]): 100%
Activity (Streptococcus agalactiae [37]): 0%
Activity (Streptococcus pyogenes [38]): 0%
Activity (Streptococcus pyogenes [39]): 0%
Activity (Streptococcus [40]): 100%
Resistant isolates (Streptococcus pneumoniae [41]): 14.7%
MIC90 (Streptococcus pyogenes [42]): ≤ 0.03 µg/mL
MIC90 (Streptococcus agalactiae [43]): 0.06 µg/mL (≈ 0.179 µM)
Activity [44]: 0%
MIC90 (Streptococcus [45]): 0.06 µg/mL (≈ 0.179 µM)
Activity [46]: 0%
MIC (Streptococcus pneumoniae [47]): ≤ 0.03 µg/mL
MIC90 (Streptococcus pneumoniae [47]): ≤ 0.03 µg/mL
Activity (Streptococcus pneumoniae [48]): 100%
Activity (Streptococcus agalactiae [49]): 100%
Activity (Streptococcus [50]): 0%
MIC90 (Streptococcus agalactiae [51]): 0.06 µg/mL (≈ 0.179 µM)
MIC90 (Streptococcus [52]): 0.06 µg/mL (≈ 0.179 µM)
Activity (Streptococcus pneumoniae [53]): 64%
